From patent publication US8193189B2, “Quinoxaline derivatives as tyrosine kinase activity inhibitors” (Novartis AG, priority 2007, dated 2012)

Experiments:
[1] = biological target: T1, GST-TYK2(888-1187) (Homo sapiens, UniProt P29597); experiment: EPK JAK-family kinases profiling assay (Caliper mobility shift), TYK2; type: biochemical; conditions: ATP 30 μM, 40 nM kinase
T1 construct: GST-TYK2(888-1187); made in house
T1 sequence (P29597 888-1187): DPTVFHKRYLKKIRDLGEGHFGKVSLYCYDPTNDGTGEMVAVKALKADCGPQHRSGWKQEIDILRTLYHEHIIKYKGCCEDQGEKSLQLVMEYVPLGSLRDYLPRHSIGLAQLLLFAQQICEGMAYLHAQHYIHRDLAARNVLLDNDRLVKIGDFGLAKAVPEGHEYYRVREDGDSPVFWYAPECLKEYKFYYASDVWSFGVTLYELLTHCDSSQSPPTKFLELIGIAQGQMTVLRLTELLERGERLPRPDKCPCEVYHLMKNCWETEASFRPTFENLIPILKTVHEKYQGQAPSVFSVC
Source text: All four kinases of the JAK-family kinases were used as purified recombinant GST-fusion proteins, containing the active kinase domains. GST-JAK1(866-1154), GST-JAK3(811-1124), and GST-TYK2(888-1187) were expressed and purified by affinity chromatography at the EPK biology unit. GST-JAK2(808-1132) was purchased from Invitrogen (Carlsbad, USA, #4288).
The kinase assays were based on the Caliper mobility shift assay using the LabChip 3000 systems. This technology is similar to capillary electrophoresis and uses charge driven separation of substrate and product in a microfluidic chip.
All kinase reactions were performed in 384 well microtiter plates in a total reaction volume of 18 μl. The assay plates were prepared with 0.1 μl per well of test compound in the appropriate test concentration, as described under the section “preparation of compound dilutions”. The reactions were started by combining 9 μl of substrate mix (consisting of peptide and ATP) with 9 μl of kinase dilution. The reactions were incubated for 60 minutes at 30° C. and stopped by adding 70 μl of stop buffer (100 mM Hepes, 5% DMSO, 0.1% Coating reagent, 10 mM EDTA, 0.015% Brij 35).
Fluorescently labeled synthetic peptides were used as substrates in all reactions. […] Specific assay conditions are described in Table 1:
The terminated reactions were transferred to the Caliper LabChip 3000 reader and the turnover of each reaction was measured by determining the substrate/product ratio.
Test compounds were dissolved in DMSO (10 mM) and transferred into 1.4 mL flat bottom or V-shaped Matrix tubes carrying a unique 2D matrix chip by individual compound hubs. The numbers of these chips were distinctively linked to the individual compound identification numbers. The stock solutions were stored at −20° C. if not used immediately. For the test procedure the vials were defrosted and identified by a scanner whereby a working sheet was generated that guided the subsequent working steps.
Compound dilutions were made in 96 well plates. This format enabled the assay of maximally 40 individual test compounds at 8 concentrations (single points) including 4 reference compounds. The dilution protocol included the production of pre-dilution plates, master plates and assay plates:
Pre-dilution plates: 96 polypropylene well plates were used as pre-dilution plates. A total of 4 pre-dilution plates were prepared including 10 test compounds each on the plate positions A1-A10, one standard compound at A11 and one DMSO control at A12. All dilution steps were done on a HamiltonSTAR robot.
Master plates: 100 μL of individual compound dilutions including standard compound and controls of the 4 “pre-dilution plates” were transferred into a 384 “master plate” including the following concentrations 1′820, 564, 182, 54.6, 18.2, 5.46, 1.82 and 0.546 μM, respectively in 90% of DMSO.
Assay plates: Identical assay plates were then prepared by pipetting 100 nL each of compound dilutions of the master plates into 384-well “assay plates”. […] The preparation of the master plates were handled by the Matrix PlateMate Plus robot and replication of assay plates by the HummingBird robot.

[2] = biological target: T2, GST-JAK1(866-1154) (Homo sapiens, UniProt P23458); experiment: EPK JAK-family kinases profiling assay (Caliper mobility shift), JAK1; type: biochemical; conditions: ATP 40 μM, 50 nM kinase
T2 construct: GST-JAK1(866-1154); made in house
Outline: (§1)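 Turnover was read as substrate/product ratio after mobility-shift capillary-like separation of each reaction, run for 60 min at 30 °C with GST-tagged kinase domain, labelled peptide and ATP, and terminated with EDTA stop buffer.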

[3] = biological target: T3, GST-JAK2(808-1132) (Homo sapiens, UniProt O60674); experiment: EPK JAK-family kinases profiling assay (Caliper mobility shift), JAK2; type: biochemical; conditions: ATP 20 μM, 1.8 nM kinase
T3 construct: GST-JAK2(808-1132); purchased Invitrogen (Carlsbad, USA) #4288
Outline: as §1

[4] = system: JAK/STAT pathway (JAK1/JAK2-dependent nuclear translocation of STAT1-GFP); experiment: Inhibition of the JAK/STAT pathway: IFN-γ stimulated nuclear translocation of STAT1-GFP in HT1080 fibrosarcoma cells; type: cell-based; conditions: Homo sapiens, HT-1080; HT1080 STAT1-GFP cells, 100 ng/ml IFN-γ 2 hours, compound added 30 min before; read-out: STAT1translo IC50
Outline: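 Readout is the nuclear-minus-cytoplasmic GFP-STAT1 intensity, imaged at 10× using Hoechst-defined nuclear masks over at least 1000 cells/well. Stably transfected HT1080 fibrosarcoma cells were pretreated 30 min with compound (final 0.003–10 μM, 0.1% DMSO) before IFN-γ challenge.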

T2 sequence (P23458 866-1154): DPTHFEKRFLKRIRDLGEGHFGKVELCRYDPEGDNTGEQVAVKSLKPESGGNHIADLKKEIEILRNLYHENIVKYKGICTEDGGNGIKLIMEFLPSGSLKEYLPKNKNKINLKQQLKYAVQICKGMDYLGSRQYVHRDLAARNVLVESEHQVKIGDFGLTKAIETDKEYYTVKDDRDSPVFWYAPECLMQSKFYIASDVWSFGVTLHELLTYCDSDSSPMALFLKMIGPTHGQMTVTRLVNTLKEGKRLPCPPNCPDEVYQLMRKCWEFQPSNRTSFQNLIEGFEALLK
T3 sequence (O60674 808-1132): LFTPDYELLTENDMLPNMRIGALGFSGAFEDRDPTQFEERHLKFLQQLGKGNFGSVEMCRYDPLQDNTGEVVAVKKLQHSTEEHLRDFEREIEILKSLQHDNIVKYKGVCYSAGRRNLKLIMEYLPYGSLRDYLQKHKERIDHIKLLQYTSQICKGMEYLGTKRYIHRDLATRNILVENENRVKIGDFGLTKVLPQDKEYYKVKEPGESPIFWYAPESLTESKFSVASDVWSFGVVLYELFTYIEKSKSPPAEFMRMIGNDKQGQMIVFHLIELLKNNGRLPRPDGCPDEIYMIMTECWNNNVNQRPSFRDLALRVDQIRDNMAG

| IC50 [1] | IC50 [2] | IC50 [3] | IC50 [4] | Structure (SMILES) |
| --- | --- | --- | --- | --- |
| 510 nM | 240 nM | 6.1 nM | 1350 nM | Fc1cc(-c2cccc3ncc(-c4cnn(CC5CCCNC5)c4)nc23)cc(F)c1CN1CCOCC1 (racemic) [Example 135, (rac)-8-(3,5-Difluoro-4-morpholin-4-ylmethyl-phenyl)-2-(1-piperidin-3-ylmethyl-1H-pyrazol-4-yl)-quinoxaline] |
| 38 nM | 66 nM | < 3 nM | 86 nM | Cc1nn(C2CCNCC2)cc1-c1cnc2cccc(-c3cc(F)c(CN4CCOCC4)c(F)c3)c2n1 [Example 127, 8-(3,5-Difluoro-4-morpholin-4-ylmethyl-phenyl)-2-(3-methyl-1-piperidin-4-yl-1H-pyrazol-4-yl)-quinoxaline] |
| 160 nM | 130 nM | < 3 nM | 196 nM | Fc1cc(-c2cccc3ncc(-c4cnn(C5CCN(C6CC6)CC5)c4)nc23)cc(F)c1CN1CCOCC1 [Example 128, 2-[1-(1-Cyclopropyl-piperidin-4-yl)-1H-pyrazol-4-yl]-8-(3,5-difluoro-4-morpholin-4-ylmethyl-phenyl)-quinoxaline] |
| 30 nM | 16 nM | < 3 nM | – | CN1CCN(C(=O)c2cc(-c3cnc4cccc(-c5cc(F)c(CN6CCS(=O)(=O)CC6)c(F)c5)c4n3)cn2C)CC1 [Example 168, (4-{8-[4-(1,1-Dioxido-thiomorpholin-4-ylmethyl)-3,5-difluoro-phenyl]-quinoxalin-2-yl}-1-methyl-1H-pyrrol-2-yl)-(4-methyl-piperazin-1-yl)-methanone] |
| 26 nM | 17 nM | < 3 nM | – | O=S1(=O)CCN(Cc2c(F)cc(-c3cccc4ncc(-c5cccc(N6CCNCC6)c5)nc34)cc2F)CC1 [Example 169, 8-[4-(1,1-Dioxido-thiomorpholin-4-ylmethyl)-3,5-difluoro-phenyl]-2-(3-piperazin-1-yl-phenyl)-quinoxaline] |
| 2000 nM | 440 nM | 70 nM | – | CC(C)(O)C#Cc1cnc2cccc(-c3cc(F)c(CN4CCS(=O)(=O)CC4)c(F)c3)c2n1 [Example 171, 4-{8-[4-(1,1-Dioxido-thiomorpholin-4-ylmethyl)-3,5-difluoro-phenyl]-quinoxalin-2-yl}-2-methyl-but-3-yn-2-ol] |

Further lines, the compound ahead of its results:

| Structure (SMILES) | IC50 [1] | IC50 [2] | IC50 [3] | IC50 [4] |
| --- | --- | --- | --- | --- |
| Cc1cc(-c2cccc3ncc(-c4cnn(C5CCNCC5)c4)nc23)ccc1C(=O)N1CCOCC1 [Example 100, {2-Methyl-4-[3-(1-piperidin-4-yl-1H-pyrazol-4-yl)-quinoxalin-5-yl]-phenyl}-morpholin-4-yl-methanone] | 1200 nM | 1400 nM | 130 nM | 12600 nM |
| CN1CCN(c2ccc(-c3cnc4cccc(-c5ccc(CN6CCS(=O)(=O)CC6)cc5)c4n3)cn2)CC1 [Example 109, 8-[4-(1,1-Dioxido-thiomorpholin-4-ylmethyl)-phenyl]-2-[6-(4-methyl-piperazin-1-yl)-pyridin-3-yl]-quinoxaline] | 360 nM | 150 nM | 24 nM | 3060 nM |
| Cc1cc(-c2cnc3cccc(-c4cc(F)c(CN5CCOCC5)c(F)c4)c3n2)ccc1C(=O)NCCO [Example 120, 4-[8-(3,5-Difluoro-4-morpholin-4-ylmethyl-phenyl)-quinoxalin-2-yl]-N-(2-hydroxy-ethyl)-2-methyl-benzamide] | 350 nM | 130 nM | 13 nM | 1730 nM |
| Cc1c(-c2cnc3cccc(-c4cc(F)c(CN5CCOCC5)c(F)c4)c3n2)cnn1C1CCNCC1 [Example 125, 8-(3,5-Difluoro-4-morpholin-4-ylmethyl-phenyl)-2-(5-methyl-1-piperidin-4-yl-1H-pyrazol-4-yl)-quinoxaline] | 210 nM | 310 nM | < 3 nM | 369 nM |
